Reference: patent publication US20180008573A1, “METHODS AND COMPOSITIONS FOR REDUCING DAMAGE ASSOCIATED WITH OXIDATIVE PHOSPHORYLATION” (USANA Health Sciences, Inc., priority 2016, published 2018)

What was measured:
human NF-κB = assay: NF-κB antagonist reporter assay (NF-κB GRE-luciferase, HEK293 cells); format: cell-based;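 further: reporter cells carry native NF-κB receptor with firefly luciferase under upstream response elements, with a vehicle control included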
NF-κB reporter cells = assay: Live cell multiplex assay in the NF-κB antagonist assay; format: cell-based, human
Method: A vehicle control was prepared.

C. elegans strain CB5586 = assay: C. elegans phenotypic lifespan screening (Kaplan-Meier, Log-Rank, Fisher's Exact Test); format: in vivo; settings: for % Change in Mean Lifespan: 0.1 mg/ml vs. DMSO control; for restricted mean lifespan, # of Days: DMSO control 13.23
Method: Dilutions of the test formulations were applied to individual populations of C. elegans and the lifespan of each population was monitored. Any changes in the lifespan of an individual population compared to a control population were recorded and correlated to the respective test formulation (N356 or N357) and the respective dilution (0.1 mg/ml, 1 mg/ml, and 10 mg/ml).
The […] and N357 formulations were each prepared as individual 100 mg/ml stock solutions in dimethyl sulfoxide (DMSO). Serial dilutions of each stock solution were then prepared at 0.1 mg/ml, 1 mg/ml, and 10 mg/ml in DMSO. Control solutions of DMSO only were also prepared. Synchronous aged adult populations of C.elegans strain CB5586 worms were prepared. The CB5586 strain comprises a pharyngeal GFP (green fluorescent protein) tag and a mutation in the bus-5 gene. The pharyngeal GFP tag allows for fluorescent images of the worm populations to be taken. The mutation in the bus-5 gene causes the loss of normal cuticle antigens that permits the cuticle of the worms to become permeable to the test formulations and allow direct uptake of the test formulations to avoid interaction of the test formulations with protective mechanisms of the gut channel. Each serial dilution of each test formulation was added to a separate population of the prepared worms. The control solutions were also added to separate populations of the prepared worms. The populations of the prepared worms were then maintained on standard nematode growth media (NGM) agar plates at 20° C. with sufficient food (Escherichia coli strain OP-50).
Each worm population was then monitored by fluorescent imaging to determine the number of living and dead worms as a function of time. The fluorescent imaging was analyzed by software that recognized and counted worms based on their fluorescent intensity compared to background fluorescence. […] The ability to distinguish between living and dead worms allowed the number of living worms and cumulative number of dead worms to be monitored against time. Worm populations from a selection of fluorescent images were manually checked to verify that the software had accurately counted the number of living and dead worms.
The counts of the living and dead worms as a function of time were then analyzed for each of the worm populations and used to prepare Kaplan-Meier survival curves and associated statistics for each of the worm populations. […] The median lifespan is shown as the length of time after the last mitotic division that 50% of the test population remains viable when compared to the control population. The maximum lifespan extension is shown as the length of time after the last mitotic division that 5% of the test population remains viable when compared to the control population.
The counts of the living and dead worms as a function of time and the Kaplan-Meier survival curves and the associated statistics were then analyzed for each of the worm populations. The analysis included determining mean and median lifespan. The analysis included a non-parametric test, the Log-Rank test, that compares two survival functions for the overall lifespan assay and provides a reliable p-value summarizing the whole experiment. The analysis also included Fisher's Exact Test that calculated the significance of survival function comparisons at multiple specific time points throughout the experiment, rather than for the overall lifespan. The results of the analysis are shown below in Tables 10-17.
Phenotypic screening was carried out as described in EXAMPLE 2 for various individual compounds of the N357 formulation. […] Alpha lipoic acid was sourced from PureBulk USA as a racemic mix of R and S stereoisomers and was assigned a sample number of N198. Hesperidin was sourced from Sigma Aldrich at ≧80% purity and was assigned a sample number of N347. […]

C[C@@H]1O[C@@H](OC[C@H]2O[C@@H](Oc3c(-c4ccc(O)c(O)c4)oc4cc(O)cc(O)c4c3=O)[C@H](O)[C@@H](O)[C@@H]2O)[C@H](O)[C@H](O)[C@H]1O [Rutin, quercetin-3-O-rutinoside]
NF-κB % Inhibition (human NF-κB; 1.11 μg/ml active ingredient): 10% | NF-κB % Inhibition (human NF-κB; 3.3 μg/ml active ingredient): −2.3% | NF-κB % Inhibition (human NF-κB; 10.0 μg/ml active ingredient): −11% | NF-κB % Inhibition (human NF-κB; 30 μg/ml active ingredient): −15% | NF-κB % Live Cell (NF-κB reporter cells; 1.11 μg/ml active ingredient): 99% | NF-κB % Live Cell (NF-κB reporter cells; 3.3 μg/ml active ingredient): 98% | NF-κB % Live Cell (NF-κB reporter cells; 10.0 μg/ml active ingredient): 101% | NF-κB % Live Cell (NF-κB reporter cells; 30 μg/ml active ingredient): 97%

O=C(O[C@@H]1Cc2c(O)cc(O)cc2O[C@@H]1c1cc(O)c(O)c(O)c1)c1cc(O)c(O)c(O)c1 [EGCG, epigallocatechin gallate]
NF-κB % Inhibition (human NF-κB; 0.033 μg/ml active ingredient): 10% | NF-κB % Inhibition (human NF-κB; 0.098 μg/ml active ingredient): 18% | NF-κB % Inhibition (human NF-κB; 0.30 μg/ml active ingredient): 0.10% | NF-κB % Inhibition (human NF-κB; 0.89 μg/ml active ingredient): 8.4% | NF-κB % Inhibition (human NF-κB; 2.67 μg/ml active ingredient): −15% | NF-κB % Inhibition (human NF-κB; 8 μg/ml active ingredient): −29% | NF-κB % Live Cell (NF-κB reporter cells; 0.033 μg/ml active ingredient): 102% | NF-κB % Live Cell (NF-κB reporter cells; 0.098 μg/ml active ingredient): 101% | NF-κB % Live Cell (NF-κB reporter cells; 0.30 μg/ml active ingredient): 105% | NF-κB % Live Cell (NF-κB reporter cells; 0.89 μg/ml active ingredient): 104% | NF-κB % Live Cell (NF-κB reporter cells; 2.67 μg/ml active ingredient): 106% | NF-κB % Live Cell (NF-κB reporter cells; 8 μg/ml active ingredient): 107%

COc1ccc([C@@H]2CC(=O)c3c(O)cc(O[C@@H]4O[C@H](CO[C@@H]5O[C@@H](C)[C@H](O)[C@@H](O)[C@H]5O)[C@@H](O)[C@H](O)[C@H]4O)cc3O2)cc1O [N347, hesperidin]
Statistically Significant Result (lifespan vs. DMSO control) (C. elegans strain CB5586; 0.1 mg/ml): Statistically significant increase | extension of lifespan (C. elegans strain CB5586; 0.1 mg/ml): about 10% | population age in days at 25% mortality (C. elegans strain CB5586; 0.1 mg/ml): 11 days | population age in days at 50% mortality (C. elegans strain CB5586; 0.1 mg/ml): 16 days | population age in days at 75% mortality (C. elegans strain CB5586; 0.1 mg/ml): 18 days | effect on chronological lifespan (C. elegans strain CB5586; 0.1 mg/ml and 10 mg/ml tested): significant positive and dose dependent increase of chronological lifespan | % Change in Mean Lifespan (C. elegans strain CB5586): +10% | restricted mean lifespan, # of Days (C. elegans strain CB5586; 0.1 mg/ml): 14.55 days | Statistically Significant Result (lifespan vs. DMSO control) (C. elegans strain CB5586; 10 mg/ml): No statistical difference | population age in days at 25% mortality (C. elegans strain CB5586; 10 mg/ml): 11 days | population age in days at 50% mortality (C. elegans strain CB5586; 10 mg/ml): 14 days | population age in days at 75% mortality (C. elegans strain CB5586; 10 mg/ml): 18 days | restricted mean lifespan, # of Days (C. elegans strain CB5586; 10 mg/ml): 14.19 days

C[C@@H]1O[C@@H](OC[C@H]2O[C@@H](Oc3c(-c4ccc(O)c(O)c4)oc4cc(O)cc(O)c4c3=O)[C@H](O)[C@@H](O)[C@@H]2O)[C@H](O)[C@H](O)[C@H]1O [N346, rutin hydrate]
decrease of lifespan (C. elegans strain CB5586; 0.1 mg/ml): about 9% | population age in days at 25% mortality (C. elegans strain CB5586; 0.1 mg/ml): 9 days | population age in days at 50% mortality (C. elegans strain CB5586; 0.1 mg/ml): 11 days | population age in days at 75% mortality (C. elegans strain CB5586; 0.1 mg/ml): 14 days | population age in days at 90% mortality (C. elegans strain CB5586; 0.1 mg/ml): 18 days | % Change in Mean Lifespan (C. elegans strain CB5586): −8% | restricted mean lifespan, # of Days (C. elegans strain CB5586; 0.1 mg/ml): 12.03 days | population age in days at 25% mortality (C. elegans strain CB5586; 10 mg/ml): 11 days | population age in days at 50% mortality (C. elegans strain CB5586; 10 mg/ml): 14 days | population age in days at 75% mortality (C. elegans strain CB5586; 10 mg/ml): 16 days | restricted mean lifespan, # of Days (C. elegans strain CB5586; 10 mg/ml): 13.43 days
